# PMC7377239, “Cardiovascular Effects of Polychlorinated Biphenyls and Their Major Metabolites” (Environmental Health Perspectives, 2020)
# Where a name gives a salt, the structure may show the parent alone. Read-outs that look alike come from different tables or passages of the source.
# Columns and labels:
# [1] = tested on: iCell endothelial cells (human iPSC-derived ECs); experiment: Tube formation (tubulogenesis) assay in iCell endothelial cells, 18 h; assay type: cell-based; settings: Homo sapiens, Endothelial cell, iPSC-EC tube formation, 18 hr; for activity at 0.1 µM: 0.10 µM; for minimal effective concentration: top concentration 100.00 µM
# Procedure, shortened: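 iCell ECs (passages 1–5) seeded 7,500 cells/well on reduced-growth-factor Geltrex in starvation medium, exposed overnight at 37°C to compounds in triplicate concentration–response (0.5% DMSO vehicle). Calcein AM staining, 4× imaging, angiogenesis image analysis; readouts normalized to vehicle, four-parameter logistic fit, POD at 1 SD of vehicle; 100 μM assigned NOAEL if no response.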
# [2] = tested on: HUVECs; experiment: High-content imaging cytotoxicity in HUVECs, 24 h; assay type: cell-based, human; settings: Homo sapiens, HUVEC, 24 h, HUVECs; for viability at 0.01 µM / activity at 0.01 µM / viability at 0.1 µM / activity at 0.1 µM / viability at 1 µM / activity at 1 µM / viability at 10 µM / activity at 10 µM / viability at 100 µM / activity at 100 µM: 0.00 µM = 100.00; for viability at 0.1 µM / activity at 0.1 µM: 0.10 µM; for minimal effective concentration: top concentration 100.00 µM
# Procedure, shortened: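 Point-of-departure values derive from four-parameter logistic fits of vehicle-normalized imaging phenotypes (Hoechst 33342, MitoTracker Orange, calcein AM). The fits follow 24 h exposure of HUVEC monolayers at 37°C and 5% CO2, with a top tested concentration of 100μM.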
# [3] = 0.00 µM control = 100.00, read-out: endo.mtl.18hr
# [4] = 0.00 µM control = 100.00, read-out: endo.tlps.18hr
# [5] = 0.00 µM control = 100.00, read-out: endo.tta.18hr
# [6] = 0.00 µM control = 100.00, read-out: endo.ttl.18hr
# [7] = 24 hr, read-out: huvec.cyto.24hr
# [8] = 24 hr, read-out: huvec.mito.24hr
# [9] = 24 hr, read-out: huvec.mitoint.24hr
# [10] = 24 hr, read-out: huvec.nma.24hr
# [11] = 24 hrs, read-out: huvec.tc.24hrs
compound,measurement,setting,value
O=S(=O)(O)Oc1cccc(-c2ccc(Cl)cc2)c1 [3'-yl PCB 3 sulfate],activity at 0.01 µM,[1]; [3],93.5%
same,activity at 0.01 µM,[1]; [4],81.8%
same,activity at 0.01 µM,[1]; [5],112%
same,activity at 0.01 µM,[1]; [6],103%
same,activity at 0.1 µM,[1]; [3],87.9%
same,activity at 0.1 µM,[1]; [4],126%
same,activity at 0.1 µM,[1]; [5],93%
same,activity at 0.1 µM,[1]; [6],88.2%
same,activity at 1 µM,[1]; [3],91.5%
same,activity at 1 µM,[1]; [4],103%
same,activity at 1 µM,[1]; [5],108%
same,activity at 1 µM,[1]; [6],98.9%
same,activity at 10 µM,[1]; [3],70.7%
same,activity at 10 µM,[1]; [4],99.4%
same,activity at 10 µM,[1]; [5],63.7%
same,activity at 10 µM,[1]; [6],60%
same,activity at 100 µM,[1]; [3],59.2%
same,activity at 100 µM,[1]; [4],33.7%
same,activity at 100 µM,[1]; [5],59.5%
same,activity at 100 µM,[1]; [6],60.4%
same,minimal effective concentration,[1]; read-out: endo.mtl.18hr POD,0.58 µM
same,minimal effective concentration,[1]; read-out: endo.tlps.18hr POD,38.6 µM
same,minimal effective concentration,[1]; read-out: endo.tta.18hr POD,11.6 µM
same,minimal effective concentration,[1]; read-out: endo.ttl.18hr POD,8.75 µM
same,viability at 0.01 µM,[2]; [7],96%
same,activity at 0.01 µM,[2]; [8],95.2%
same,activity at 0.01 µM,[2]; [9],93.5%
same,activity at 0.01 µM,[2]; [10],100%
same,viability at 0.1 µM,[2]; [7],97%
same,activity at 0.1 µM,[2]; [8],97.2%
same,activity at 0.1 µM,[2]; [9],105%
same,activity at 0.1 µM,[2]; [10],101%
same,viability at 1 µM,[2]; [7],92.7%
same,activity at 1 µM,[2]; [8],92.1%
same,activity at 1 µM,[2]; [9],104%
same,activity at 1 µM,[2]; [10],101%
same,viability at 10 µM,[2]; [7],119%
same,activity at 10 µM,[2]; [8],118%
same,activity at 10 µM,[2]; [9],89.3%
same,activity at 10 µM,[2]; [10],92.6%
same,viability at 100 µM,[2]; [7],88%
same,activity at 100 µM,[2]; [8],87.5%
same,activity at 100 µM,[2]; [9],102%
same,activity at 100 µM,[2]; [10],94.9%
same,minimal effective concentration,"[2]; 24 hr, read-out: huvec.cyto.24hr POD",100 µM
same,minimal effective concentration,"[2]; 24 hr, read-out: huvec.mito.24hr POD",100 µM
same,minimal effective concentration,"[2]; 24 hr, read-out: huvec.mitoint.24hr POD",100 µM
same,minimal effective concentration,"[2]; 24 hr, read-out: huvec.nma.24hr POD",100 µM
same,viability at 0.01 µM,[2]; [11],96%
same,viability at 0.1 µM,[2]; [11],97.1%
same,viability at 1 µM,[2]; [11],92.7%
same,viability at 10 µM,[2]; [11],119%
same,viability at 100 µM,[2]; [11],88.2%
same,minimal effective concentration,"[2]; 24 hrs, read-out: huvec.tc.24hrs POD",100 µM
